Measured values as given in US12077503B2, “Substituted cyclic amides and their use as herbicides” (FMC CORPORATION, priority 2015, dated 2024).
Where two headings read alike, the source gives them in different places.

Key:
Type in all cases: in vivo
Kochia (Kochia scoparia) [1] = assay: Test A preemergence; settings: Bassia scoparia, pre-emergence, 240 h; for pest or weed control at 125 g/ha: 125 g ai/ha; for pest or weed control at 500 g/ha: 500 g ai/ha
How it was run: (§1)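 Preemergence soil spray on seeded pots or post-emergence spray on 1–2 leaf plants, in loam–sand blend. Greenhouse ~10 d. Visual rating 0–100 against untreated plants.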

[2] = tested on: giant foxtail (Setaria faberii); assay: Test A preemergence; settings: Setaria faberi, pre-emergence, 240 h; for pest or weed control at 125 g/ha: 125 g ai/ha; for pest or weed control at 500 g/ha: 500 g ai/ha
How it was run: as §1

[3] = tested on: ragweed (common ragweed, Ambrosia elatior); assay: Test A preemergence; settings: Ambrosia artemisiifolia, pre-emergence, 240 h; for pest or weed control at 125 g/ha: 125 g ai/ha; for pest or weed control at 500 g/ha: 500 g ai/ha
How it was run: as §1

[4] = tested on: ryegrass, Italian (Italian ryegrass, Lolium multiflorum); assay: Test A preemergence; settings: Lolium multiflorum, pre-emergence, 240 h; for pest or weed control at 125 g/ha: 125 g ai/ha
How it was run: as §1

[5] = tested on: pigweed (Amaranthus retroflexus); assay: Test A preemergence; settings: Amaranthus retroflexus, pre-emergence, 240 h; for pest or weed control at 125 g/ha: 125 g ai/ha; for pest or weed control at 500 g/ha: 500 g ai/ha
[6] = tested on: barnyardgrass (Echinochloa crus-galli); assay: Test A preemergence; settings: Echinochloa crus-galli, pre-emergence, 240 h; for pest or weed control at 125 g/ha: 125 g ai/ha; for pest or weed control at 500 g/ha: 500 g ai/ha
How it was run: as §1

Kochia (Kochia scoparia) [7] = assay: Test A postemergence; settings: Bassia scoparia, post-emergence, 240 h, Postemergence; for pest or weed control at 125 g/ha: 125 g ai/ha, visual rating about 10 d after treatment, read-out: Kochia plant response rating (0 to 100 scale); for pest or weed control at 500 g/ha: 500 g ai/ha, visual injury, 0 to 100 scale (0 no effect, 100 complete control), approx. 10 d, read-out: Plant response rating, Kochia
How it was run: as §1

[8] = tested on: giant foxtail (Setaria faberii); assay: Test A postemergence; settings: Setaria faberi, post-emergence, 240 h, Postemergence; for pest or weed control at 125 g/ha: 125 g ai/ha, visual rating about 10 d after treatment, read-out: Foxtail, Giant plant response rating (0 to 100 scale); for pest or weed control at 500 g/ha: 500 g ai/ha, visual injury, 0 to 100 scale (0 no effect, 100 complete control), approx. 10 d, read-out: Plant response rating, Foxtail, Giant
How it was run: as §1

[9] = tested on: ryegrass, Italian (Italian ryegrass, Lolium multiflorum); assay: Test A postemergence; settings: Lolium multiflorum, post-emergence, 240 h, Postemergence; for pest or weed control at 125 g/ha: 125 g ai/ha, visual rating about 10 d after treatment, read-out: Ryegrass, Italian plant response rating (0 to 100 scale); for pest or weed control at 500 g/ha: 500 g ai/ha, visual injury, 0 to 100 scale (0 no effect, 100 complete control), approx. 10 d, read-out: Plant response rating, Ryegrass, Italian
How it was run: as §1

[10] = tested on: blackgrass (Alopecurus myosuroides); assay: Test A postemergence; settings: Alopecurus myosuroides, post-emergence, 240 h, Postemergence; for pest or weed control at 125 g/ha: 125 g ai/ha, visual rating about 10 d after treatment, read-out: Blackgrass plant response rating (0 to 100 scale); for pest or weed control at 500 g/ha: 500 g ai/ha, visual injury, 0 to 100 scale (0 no effect, 100 complete control), approx. 10 d, read-out: Plant response rating, Blackgrass
How it was run: as §1

[11] = tested on: sedge, umbrella (small-flower umbrella sedge, Cyperus difformis); assay: Test B flooded paddy test; settings: Cyperus difformis, 250 g ai/ha, Flood
How it was run: (§2)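 Visual ratings (0 none to 100 complete control) are relative to untreated plants, taken 13–15 d after treatment in a greenhouse. Test material went straight into floodwater standing 3 cm above the soil, kept constant, on plants at the 2-leaf stage.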

rice (Oryra sativa) = assay: Test B flooded paddy test; settings: Oryza sativa, 250 g ai/ha, Flood; 0 to 100 scale where 0 is no effect and 100 is complete control; read-out: Rice plant response rating
How it was run: as §2

[12] = tested on: ducksalad (Heteranthera limosa); assay: Test B flooded paddy test; settings: Heteranthera limosa, 250 g ai/ha, Flood; 0 to 100 scale where 0 is no effect and 100 is complete control; read-out: Ducksalad plant response rating
How it was run: as §2

[13] = tested on: barnyardgrass (Echinochloa crus-galli); assay: Test B flooded paddy test; settings: Echinochloa crus-galli, 250 g ai/ha, Flood; 0 to 100 scale where 0 is no effect and 100 is complete control; read-out: Barnyardgrass plant response rating
How it was run: as §2

[14] = preemergence, 0 to 100 scale where 0 is no effect and 100 is complete control, read-out: Kochia plant response rating
[15] = preemergence, 0 to 100 scale where 0 is no effect and 100 is complete control, read-out: Foxtail, Giant plant response rating
[16] = preemergence, 0 to 100 scale where 0 is no effect and 100 is complete control, read-out: Ragweed plant response rating
[17] = preemergence, 0 to 100 scale where 0 is no effect and 100 is complete control, read-out: Pigweed plant response rating
[18] = preemergence, 0 to 100 scale where 0 is no effect and 100 is complete control, read-out: Barnyardgrass plant response rating
[19] = Preemergence, 0 to 100 scale (0 no effect, 100 complete control), read-out: Plant response rating, Kochia
[20] = Preemergence, 0 to 100 scale (0 no effect, 100 complete control), read-out: Plant response rating, Foxtail, Giant
[21] = Preemergence, 0 to 100 scale (0 no effect, 100 complete control), read-out: Plant response rating, Ragweed
[22] = Preemergence, 0 to 100 scale (0 no effect, 100 complete control), read-out: Plant response rating, Ryegrass, Italian
[23] = Preemergence, 0 to 100 scale (0 no effect, 100 complete control), read-out: Plant response rating, Pigweed
[24] = Preemergence, 0 to 100 scale (0 no effect, 100 complete control), read-out: Plant response rating, Barnyardgrass
[25] = 360 h, visually evaluated after 13 to 15 d, read-out: Plant response rating, Sedge, Umbrella (0 to 100 scale where 0 is no effect and 100 is complete control)

SMILES | pest or weed control at 500 g/ha (Kochia (Kochia scoparia) [1]; [14]) [%] | pest or weed control at 500 g/ha [2, 15] [%] | pest or weed control at 500 g/ha [3, 16] [%] | pest or weed control at 500 g/ha [5, 17] [%] | pest or weed control at 500 g/ha [6, 18] [%] | pest or weed control at 125 g/ha (Kochia (Kochia scoparia) [7]) [%] | pest or weed control at 500 g/ha (Kochia (Kochia scoparia) [7]) [%] | pest or weed control at 125 g/ha [8] [%] | pest or weed control at 500 g/ha [8] [%] | pest or weed control at 125 g/ha [9] [%] | pest or weed control at 500 g/ha [9] [%] | pest or weed control at 125 g/ha [10] [%] | pest or weed control at 500 g/ha [10] [%] | pest or weed control at 250 g/ha (rice (Oryra sativa)) [%] | pest or weed control at 250 g/ha [12] [%] | pest or weed control at 250 g/ha [13] [%] | pest or weed control at 125 g/ha (Kochia (Kochia scoparia) [1]; [19]) [%] | pest or weed control at 125 g/ha [2, 20] [%] | pest or weed control at 125 g/ha [3, 21] [%] | pest or weed control at 125 g/ha [4, 22] [%] | also measured
COc1cc([C@H]2CN(C)C(=O)[C@@H]2C(=O)Nc2cccc(F)c2C)ccc1F [Compound 1300] | 60 | 90 | 80 | 40 | 90 | 0 | 0 | 80 | 90 | 0 | 30 | 30 | 50 | 25 | 80 | 65 |  |  |  |  | pest or weed control at 125 g/ha (Kochia (Kochia scoparia) [1]; preemergence, visual injury rating, 0 to 100 scale where 0 is no effect and 100 is complete control, approximately 10 d, read-out: Kochia plant response rating): 0%; pest or weed control at 125 g/ha ([2]; preemergence, visual injury rating, 0 to 100 scale where 0 is no effect and 100 is complete control, approximately 10 d, read-out: Foxtail, Giant plant response rating): 90%; pest or weed control at 125 g/ha ([3]; preemergence, visual injury rating, 0 to 100 scale where 0 is no effect and 100 is complete control, approximately 10 d, read-out: Ragweed plant response rating): 0%; pest or weed control at 125 g/ha ([4]; preemergence, visual injury rating, 0 to 100 scale where 0 is no effect and 100 is complete control, approximately 10 d, read-out: Ryegrass, Italian plant response rating): 0%; pest or weed control at 500 g/ha ([4]; 500 g ai/ha, preemergence, 0 to 100 scale where 0 is no effect and 100 is complete control, read-out: Ryegrass, Italian plant response rating): 60%; pest or weed control at 125 g/ha ([5]; preemergence, visual injury rating, 0 to 100 scale where 0 is no effect and 100 is complete control, approximately 10 d, read-out: Pigweed plant response rating): 0%; pest or weed control at 125 g/ha ([6]; preemergence, visual injury rating, 0 to 100 scale where 0 is no effect and 100 is complete control, approximately 10 d, read-out: Barnyardgrass plant response rating): 90%; pest or weed control at 250 g/ha ([11]; 0 to 100 scale where 0 is no effect and 100 is complete control, read-out: Sedge, Umbrella plant response rating): 0%
CN1C[C@H](c2cccc(C(C)(F)F)c2)[C@@H](C(=O)Nc2ccc(F)cc2F)C1=O [Compound 1319] | 80 | 90 | 20 | 60 | 90 | 20 | 60 | 90 | 90 | 40 | 60 | 70 | 80 | 0 | 90 | 90 | 80 | 90 | 0 | 30 | pest or weed control at 125 g/ha [5, 23]: 0%; pest or weed control at 125 g/ha [6, 24]: 90%; pest or weed control at 250 g/ha [11, 25]: 0%
CN1C[C@H](c2ccc3c(c2)CCO3)[C@@H](C(=O)Nc2cccc(F)c2F)C1=O [Compound 1324] | 90 | 100 | 90 | 40 | 100 | 30 | 70 | 90 | 90 | 30 | 50 | 40 | 60 | 0 | 65 | 75 | 90 | 90 | 90 | 20 | pest or weed control at 125 g/ha [5, 23]: 0%; pest or weed control at 125 g/ha [6, 24]: 90%; pest or weed control at 250 g/ha [11, 25]: 0%
Cc1c(F)ccc([C@H]2CNC(=O)[C@@H]2C(=O)Nc2ccccc2F)c1F [Compound 1326] | 100 | 90 | 0 | 0 | 90 | 0 | 0 | 0 | 0 | 0 | 20 | 0 | 0 | 0 | 70 | 0 | 30 | 60 | 0 | 20 | pest or weed control at 125 g/ha [5, 23]: 0%; pest or weed control at 125 g/ha [6, 24]: 80%; pest or weed control at 250 g/ha [11, 25]: 0%
